Laboratory results: patent publication US20050197274A1, “Solid laundry detergent granules with polyanionic ammonium surfactant and non-aqueous binder” (Unilever Home & Personal Care USA, Division of Conopco, Inc., priority 2004, published 2005)

Assay: Water solubility: appearance and pH of the aqueous mix while acid and polyamine are combined
Format: physicochemical
Details: TEPA 2.0 g in water 94.0 g, before LAS acid
Description: As PAAS began forming, the solution became hazy. Upon further addition of the LAS acid, the hazy solution became a dispersion. Upon standing for hours, the dispersion formed a layer of sediment at the bottom of the beaker. Even a very diluted formulation (such as below 0.1%) was hazy. […] The solution was clear at the all time over the entire pH range, leading to the conclusion that Na-LAS was fully ionized or disassociated. […] Example 1 was repeated, except that fatty acid was used in place of LAS acid.

## NCCNCCNCCNCCN [TEPA, Tetraethylenepentamine]
  Observations (appearance): Clear
